Experimental data reported in ChEMBL document CHEMBL1121561, “Synthesis and antineoplastic activity of a novel series of phosphoramide mustard analogues of pyrimidine deoxyribonucleosides” (1980).
Calls of active or inactive are those of the source. No cut-off for these calls is given here.

Columns and labels:
L1210 [1] = assay: Compound was tested in vitro for its inhibition against replication of L1210 neoplastic cells; Inactive; type: functional, cell-based; settings: Mus musculus
L1210 [2] = assay: Compound was tested in vitro for its inhibition against replication of L1210 neoplastic cells; type: functional; settings: Mus musculus, read-out: ID50 (the source's name)

Row | SMILES | ID50 (L1210 [1]) | IC50 (L1210 [2]) [µM]
1 | Cc1cn(C2CC3NP(=O)(N(CCCl)CCCl)NCC3O2)c(=O)[nH]c1=O (stereo not given) | inactive | –
2 | Cc1cn(C2CC3OP(=O)(N(CCCl)CCCl)NCC3O2)c(=O)[nH]c1=O (stereo not given) | – | 12
3 | O=c1[nH]c(=O)n(C2CC3OP(=O)(N(CCCl)CCCl)NCC3O2)cc1I (stereo not given) | – | 14
4 | O=P1(N(CCCl)CCCl)NCCCO1 (stereo not given) | inactive | –
5 | Cc1cn(C2CC3OP(=O)(N(CCCl)CCCl)N(C)CC3O2)c(=O)[nH]c1=O (stereo not given) | – | 15
